Results as given in US6875752B2, “Uridine derivatives as antibiotics” (Aventis Pharma S.A., priority 2001, dated 2005).

Assays:
Test in all cases: Method of dilutions in a liquid medium (M.I.C.)
Type in all cases: cell-based
E. faecium = E. faecium strains; incubation twenty-four hours at 37° C.; result in words only
Method: (§1) Detail of excipient starch, talc, magnesium stearate. Pharmacological Study of the Products of the Invention Method of Dilutions in a Liquid Medium
(§2) A series of tubes is prepared in which the same quantity of sterile nutritive medium is distributed. Increasing quantities of the product to be studied are distributed into each tube, then each tube is seeded with a bacterial strain. After incubation for twenty-four hours in a heating chamber at 37° C., the growth inhibition is evaluated by transillumination, which allows the minimal inhibitory concentrations (M.I.C.) to be determined, expressed in micrograms/cm^3.

S. aureus = S. aureus strains; incubation twenty-four hours at 37° C.; result in words only
Method: as §1, §2

S. pyogenes = S. pyogenes strains; incubation twenty-four hours at 37° C.; result in words only
Method: as §1, §2

Measured: activity (growth inhibition, minimal inhibitory concentrations M.I.C.)

CCCCCCCCCCCCCCCC(=O)NC[C@@H](O[C@@H]1O[C@H](CN)[C@@H](O)[C@H]1O)[C@@H]1C[C@@H](O)[C@H](n2ccc(=O)[nH]c2=O)O1 [Example 1, 1-[5-O-(5-amino-5-deoxy-β-D-ribofuranosyl)-3,6-dideoxy-6-[(1-oxohexadecyl)amino]-β-D-ribo-hexofuranosyl]-2,4-(1H,3H)-pyrimidinedione]
good activity: all assays above
